Measured values from US12577211B2, “Probenecid compounds for the treatment of inflammasome-mediated lung disease” (Bacainn Biotherapeutics, Ltd., priority 2020, dated 2026).

How the values were obtained:
[1] = tested on: NLRP1; experiment: NLRP1 (L18-MDP)-induced inflammasome activation in immortalized BMDMs, secreted IL-1β ELISA (Example 10); type: cell-based; conditions: 20, 100, 350 μM; L18-MDP 100 μg/mL, 16 hours
[2] = target: T1, NLRP3 inflammasome (Mus musculus, UniProt Q8R4B8); experiment: IL-1β secretion (ELISA) in LPS-primed iBMDMs stimulated with silica or nigericin; type: cell-based, murine; conditions: LPS 100 ng/mL primed iBMDMs; silica 250 μg/mL or nigericin 6 μM; compound 300, 150, 30, 3 μM
T1 construct: Immortalized wild-type C57BL/6 bone-marrow derived macrophages (iBMDMs); endogenous in cells; host or cells: immortalized wild-type C57BL/6 bone-marrow derived macrophages (iBMDMs), LPS-primed
T1 sequence (Q8R4B8 whole entry): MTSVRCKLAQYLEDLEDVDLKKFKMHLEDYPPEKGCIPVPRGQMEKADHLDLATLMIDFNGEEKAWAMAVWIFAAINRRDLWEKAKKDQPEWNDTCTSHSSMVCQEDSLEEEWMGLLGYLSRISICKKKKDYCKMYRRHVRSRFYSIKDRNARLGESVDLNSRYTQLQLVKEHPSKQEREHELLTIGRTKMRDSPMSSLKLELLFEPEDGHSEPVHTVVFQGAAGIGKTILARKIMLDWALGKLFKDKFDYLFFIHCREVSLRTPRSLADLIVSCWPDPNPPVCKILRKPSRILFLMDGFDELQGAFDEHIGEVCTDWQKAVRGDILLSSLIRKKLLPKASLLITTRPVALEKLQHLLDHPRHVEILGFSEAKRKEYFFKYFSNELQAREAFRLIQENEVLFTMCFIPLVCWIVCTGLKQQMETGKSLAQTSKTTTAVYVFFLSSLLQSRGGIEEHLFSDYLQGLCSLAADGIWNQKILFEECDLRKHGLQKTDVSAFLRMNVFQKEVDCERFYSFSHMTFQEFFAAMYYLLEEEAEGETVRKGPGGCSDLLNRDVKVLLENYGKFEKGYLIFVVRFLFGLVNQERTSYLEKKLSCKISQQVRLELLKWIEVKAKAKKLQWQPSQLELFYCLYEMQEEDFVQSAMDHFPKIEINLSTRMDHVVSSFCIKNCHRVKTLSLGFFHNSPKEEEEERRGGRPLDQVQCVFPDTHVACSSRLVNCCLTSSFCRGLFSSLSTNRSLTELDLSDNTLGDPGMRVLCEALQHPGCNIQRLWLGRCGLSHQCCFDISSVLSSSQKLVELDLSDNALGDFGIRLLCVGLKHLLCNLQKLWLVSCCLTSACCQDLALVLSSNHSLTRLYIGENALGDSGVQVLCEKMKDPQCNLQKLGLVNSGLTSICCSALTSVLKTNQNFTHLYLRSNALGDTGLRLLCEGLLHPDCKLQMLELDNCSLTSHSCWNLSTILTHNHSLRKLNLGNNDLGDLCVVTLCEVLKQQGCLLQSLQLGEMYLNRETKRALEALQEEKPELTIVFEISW
Procedure: In vitro stimulation of murine macrophages. Immortalized wild-type C57BL/6 bone-marrow derived macrophages (iBMDMs) were grown in DMEM supplemented with 10% heat inactivated FBS and 2 mM glutamine. iBMDMs were seeded in 96-well plates 24 hours prior incubation with lipopolysaccharide (LPS; 100 ng/mL) for 3 hours. Cells were then incubated with a control probenecid compound (probenecid dissolved in DMSO (Prob/D), probenecid dissolved in PBS (Prob/P)) or one of the probenecid analogs of the present technology (BT032, BT132, BT133, BT134, BT135, BT136, BT137, BT138, BT139, or BT140) at concentrations of 300 μM, 150 μM, 30 μM, or 3 μM 1 hour prior to stimulation with NLRP3 inflammasome activators, silica (250 μg/mL) or nigericin (6 μM). After an additional 6 hours, cell supernatants were collected and levels of IL-1β were quantified by ELISA. These experiments were run in triplicate three times.

[3] = tested on: HKx31 (H3N2) influenza A virus; type: in vivo, C57BL/6 mice
[4] = tested on: NLRP1; experiment: NLRP1-mediated inflammasome activity, secreted IL-1β ELISA in immortalized BMDMs (L18-MDP); type: cell-based, murine; conditions: for NLRP1 (L18-MDP)-induced inflammasome activation: BT032 20, 100 μM, MCC950 5 μM
[5] = tested on: non-canonical inflammasome; experiment: Non-canonical inflammasome activity (LPS (B4)), secreted IL-1β ELISA in immortalized BMDMs; type: cell-based, murine; conditions: BT032 20, 100 μM
[6] = target: T2, AIM2 (Mus musculus, UniProt Q91VJ1); experiment: AIM2 (poly dA:dT)-mediated inflammasome activation, secreted IL-1β ELISA in immortalized BMDMs; type: cell-based, murine; conditions: BT032 20, 100 μM
T2 sequence (Q91VJ1 1-354): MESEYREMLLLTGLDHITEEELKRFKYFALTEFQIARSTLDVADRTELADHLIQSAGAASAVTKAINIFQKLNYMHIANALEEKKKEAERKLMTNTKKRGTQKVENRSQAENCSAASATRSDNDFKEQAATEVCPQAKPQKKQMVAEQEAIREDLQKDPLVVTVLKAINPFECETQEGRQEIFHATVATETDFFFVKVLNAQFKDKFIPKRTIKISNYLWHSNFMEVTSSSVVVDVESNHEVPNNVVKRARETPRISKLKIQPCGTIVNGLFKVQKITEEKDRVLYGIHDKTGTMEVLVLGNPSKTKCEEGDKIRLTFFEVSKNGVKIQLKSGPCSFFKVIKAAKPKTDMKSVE

[7] = target: NLRC4 (Mus musculus, UniProt Q3UP24); experiment: NLRC4 (Flagellin)-mediated inflammasome activation, secreted IL-1β ELISA in immortalized BMDMs; type: cell-based, murine; conditions: BT032 20, 100 μM
Sequence of NLRC4 (Q3UP24 whole entry): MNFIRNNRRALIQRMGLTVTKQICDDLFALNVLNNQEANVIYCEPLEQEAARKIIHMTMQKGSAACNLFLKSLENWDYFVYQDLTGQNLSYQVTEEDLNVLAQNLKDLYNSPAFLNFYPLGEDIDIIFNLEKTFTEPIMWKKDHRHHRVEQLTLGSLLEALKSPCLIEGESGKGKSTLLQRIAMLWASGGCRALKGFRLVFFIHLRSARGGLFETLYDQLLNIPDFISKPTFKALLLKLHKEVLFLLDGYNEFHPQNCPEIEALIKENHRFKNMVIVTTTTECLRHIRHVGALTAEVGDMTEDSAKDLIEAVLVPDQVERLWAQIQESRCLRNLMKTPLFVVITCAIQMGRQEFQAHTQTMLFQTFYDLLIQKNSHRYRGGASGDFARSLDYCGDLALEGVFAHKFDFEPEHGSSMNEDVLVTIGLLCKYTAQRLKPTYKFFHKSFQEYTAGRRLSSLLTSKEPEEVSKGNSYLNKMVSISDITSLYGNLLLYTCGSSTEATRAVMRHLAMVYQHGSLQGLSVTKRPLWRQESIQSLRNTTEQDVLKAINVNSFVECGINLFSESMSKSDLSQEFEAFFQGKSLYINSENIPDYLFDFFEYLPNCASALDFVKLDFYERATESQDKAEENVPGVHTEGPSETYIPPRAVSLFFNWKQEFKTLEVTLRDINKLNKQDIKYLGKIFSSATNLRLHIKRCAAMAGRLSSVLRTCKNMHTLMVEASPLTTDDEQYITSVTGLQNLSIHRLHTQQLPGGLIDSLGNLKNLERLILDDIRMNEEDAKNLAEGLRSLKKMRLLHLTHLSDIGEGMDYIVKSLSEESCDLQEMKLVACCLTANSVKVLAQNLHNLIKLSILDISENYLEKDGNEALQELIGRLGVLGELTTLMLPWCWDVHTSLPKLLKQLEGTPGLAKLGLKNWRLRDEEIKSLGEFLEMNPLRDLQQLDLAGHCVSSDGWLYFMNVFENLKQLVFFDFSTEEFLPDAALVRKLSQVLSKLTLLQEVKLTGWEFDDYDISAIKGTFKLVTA

[8] = target: T3, NLRP1 (Homo sapiens, UniProt Q9C000); experiment: poly I:C NLRP1 activation in primary human bronchial epithelial cells, secreted IL-1β ELISA; type: cell-based; conditions: 20, 100, 350 μM
T3 construct: Primary bronchial epithelial cells (PBEC) were obtained from bronchial brushings; endogenous in cells; host or cells: primary human bronchial epithelial cells (PBEC) from bronchial brushings
T3 sequence (Q9C000 1-1212 limits assumed): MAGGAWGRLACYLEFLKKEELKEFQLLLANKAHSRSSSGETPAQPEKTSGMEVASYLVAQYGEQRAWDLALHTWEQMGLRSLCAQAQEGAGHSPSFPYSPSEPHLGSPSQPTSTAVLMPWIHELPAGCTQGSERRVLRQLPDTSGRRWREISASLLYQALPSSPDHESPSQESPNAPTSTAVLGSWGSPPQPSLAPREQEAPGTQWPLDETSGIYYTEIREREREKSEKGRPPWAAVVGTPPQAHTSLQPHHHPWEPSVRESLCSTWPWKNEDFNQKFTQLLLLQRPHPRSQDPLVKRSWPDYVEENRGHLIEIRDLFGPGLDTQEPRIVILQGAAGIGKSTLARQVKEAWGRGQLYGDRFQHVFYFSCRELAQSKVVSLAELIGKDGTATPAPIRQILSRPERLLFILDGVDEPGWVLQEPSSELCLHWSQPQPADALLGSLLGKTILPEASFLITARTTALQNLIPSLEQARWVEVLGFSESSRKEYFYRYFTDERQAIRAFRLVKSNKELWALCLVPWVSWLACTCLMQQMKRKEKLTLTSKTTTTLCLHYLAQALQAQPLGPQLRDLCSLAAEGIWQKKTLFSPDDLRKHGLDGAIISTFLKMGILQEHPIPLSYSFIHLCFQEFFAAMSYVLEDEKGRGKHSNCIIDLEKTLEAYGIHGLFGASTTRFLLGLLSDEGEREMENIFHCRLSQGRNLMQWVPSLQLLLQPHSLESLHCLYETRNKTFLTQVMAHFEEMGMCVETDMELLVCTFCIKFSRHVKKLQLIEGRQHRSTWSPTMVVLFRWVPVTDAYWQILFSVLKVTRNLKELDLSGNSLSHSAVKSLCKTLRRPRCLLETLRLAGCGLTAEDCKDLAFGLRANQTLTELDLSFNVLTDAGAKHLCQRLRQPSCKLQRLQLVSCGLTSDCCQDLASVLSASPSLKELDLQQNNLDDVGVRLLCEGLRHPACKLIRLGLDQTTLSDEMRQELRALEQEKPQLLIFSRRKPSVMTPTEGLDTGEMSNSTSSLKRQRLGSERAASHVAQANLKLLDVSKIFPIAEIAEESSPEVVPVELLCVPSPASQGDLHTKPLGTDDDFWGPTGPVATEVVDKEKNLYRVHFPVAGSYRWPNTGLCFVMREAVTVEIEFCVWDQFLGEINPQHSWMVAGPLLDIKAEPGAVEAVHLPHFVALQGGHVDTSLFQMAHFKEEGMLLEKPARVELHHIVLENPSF
T3 sequence (Q9C000 1213-1473 limits assumed): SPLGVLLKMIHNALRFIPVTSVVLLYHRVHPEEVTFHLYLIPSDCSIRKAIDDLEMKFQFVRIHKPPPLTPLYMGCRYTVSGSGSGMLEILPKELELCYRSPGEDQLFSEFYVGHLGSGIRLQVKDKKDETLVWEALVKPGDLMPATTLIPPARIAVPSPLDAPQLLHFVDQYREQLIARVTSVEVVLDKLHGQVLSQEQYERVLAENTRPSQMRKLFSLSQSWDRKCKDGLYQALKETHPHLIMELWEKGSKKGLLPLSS
Procedure: Methods. Primary bronchial epithelial cells (PBEC) were obtained from bronchial brushings and cultured under submerged conditions on collagen-coated flasks in supplemented bronchial epithelial growth medium. PBECs were seeded at 2.5×10^5/ml cells in collagen-coated 96 well plates overnight.

[9] = tested on: ASC specks (NLRP3 inflammasome complex); experiment: Nigericin-induced ASC speck formation in ASC-cerulean/NLRP3 macrophages; type: cell-based; conditions: 350 μM, 60 mins before nigericin 3 μM for 90 mins
[10] = target: NLRP3 (Mus musculus, UniProt Q8R4B8); experiment: NLRP3-mediated inflammasome activity, secreted IL-1β ELISA in LPS-primed immortalized BMDMs (nigericin, MSU, silica)
Sequence of NLRP3 (Q8R4B8 whole entry): as the sequence (Q8R4B8 whole entry) above

CCCN(CCC)S(=O)(=O)c1ccc(N2CCC(CCCC(=O)O)CC2)cc1 [BT135, 4-(1-(4-(N,N-dipropylsulfamoyl)-phenyl)piperidin-4-yl)butanoic acid]
NLRP1 (L18-MDP)-induced inflammasome activation (secreted IL-1β) [1]: dose-dependently inhibited

CCCN(CCC)S(=O)(=O)c1ccc(-c2ccc(CCCC(=O)O)cc2)cc1 [BT032, 4-(4′-(N,N-dipropylsulfamoyl)-[1,1′-biphenyl]-4-yl)butanoic acid]
potency in reducing IL-1β secretion compared with control probenecid compounds [2]: more potent than the control probenecid compounds | survival of mice ([3]; […], survival without treatment 5 days): 7-9 days post-infection | pulmonary inflammation and cellular infiltrates in BAL (total cells, alveolar macrophages, neutrophils, Ly6C+ macrophages, dendritic cells, MCP-1) ([3]; mouse, in vivo): reduce hyperinflammation in the airways | NLRP1 (L18-MDP)-induced inflammasome activation [4]: dose-dependently inhibited | IC50 ([4]; L18-MDP 100 μg/mL, drug 3.9-350 μM, read-out: IC50, inhibition of NLRP1-mediated inflammasome activity): 30 µM | non-canonical inflammasome activity (LPS (B4)) [5]: limited impact | AIM2 (poly dA:dT)-mediated inflammasome activation [6]: no effect | NLRC4 (Flagellin)-mediated inflammasome activation [7]: no effect | poly I:C NLRP1 activation (IL-1β secretion) [8]: inhibited poly I:C NLRP1 activation | ASC specks in cells [9]: substantially reduced ASC specks | NLRP1 (L18-MDP)-induced inflammasome activation (secreted IL-1β) [1]: dose-dependently inhibited | IC50 [10]: 30 µM | NLRP3 (Nigericin, MSU, Silica)-induced inflammasome activation ([10]; BT032 20, 100 μM, MCC950 5 μM, secreted IL-1β): dose-dependently inhibited

CC(C)(O)c1coc(S(=O)(=O)NC(=O)Nc2c3c(cc4c2CCC4)CCC3)c1 [MCC950, reference compound]
NLRP1 (L18-MDP)-induced inflammasome activation [4]: no impact upon NLRP1 activity

CCCN(CCC)S(=O)(=O)c1ccc(-c2nc(CCCC(=O)O)cs2)cc1 [BT136, 4-(2-(4-(N,N-dipropylsulfamoyl)phenyl)thiazol-4-yl)butanoic acid]
potency in reducing IL-1β secretion compared with control probenecid compounds [2]: more potent than the control probenecid compounds | NLRP1 (L18-MDP)-induced inflammasome activation (secreted IL-1β) [1]: dose-dependently inhibited
